From PubChem BioAssay (NCI)
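Tested at 5 concentrations; 48 h exposure; 96-well plates; endpoints linearly interpolated, else capped at highest concentration. Abbreviation: GI50, concentration required for 50% inhibition of growth. TGI marks complete inhibition of growth.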

Legend:
Experiment in all cases: NCI anticancer screen, dose series, 48 h
786-0 renal = test system: 786-0 renal
A498 renal = test system: A498 renal
A549 NSCLC = test system: A549 NSCLC
ACHN renal = test system: ACHN renal
BT-549 breast = test system: BT-549 breast
CAKI-1 renal = test system: CAKI-1 renal
CCRF-CEM leukemia = test system: CCRF-CEM leukemia
COLO 205 colon = test system: COLO 205 colon
DU-145 prostate = test system: DU-145 prostate
EKVX NSCLC = test system: EKVX NSCLC
HCC-2998 colon = test system: HCC-2998 colon
HCT-116 colon = test system: HCT-116 colon
HCT-15 colon = test system: HCT-15 colon
HOP-62 NSCLC = test system: HOP-62 NSCLC
HOP-92 NSCLC = test system: HOP-92 NSCLC
HS 578T breast = test system: HS 578T breast
K-562 leukemia = test system: K-562 leukemia
KM12 colon = test system: KM12 colon
LOX IMVI melanoma = test system: LOX IMVI melanoma
M14 melanoma = test system: M14 melanoma
MALME-3M melanoma = test system: MALME-3M melanoma
MDA-MB-231 breast = test system: MDA-MB-231 breast
MDA-MB-435 = test system: MDA-MB-435
MOLT-4 leukemia = test system: MOLT-4 leukemia
NCI-H23 lung = test system: NCI-H23 lung
NCI-H522 lung = test system: NCI-H522 lung
NCI/ADR-RES ovarian = test system: NCI/ADR-RES ovarian
OVCAR-3 ovarian = test system: OVCAR-3 ovarian
OVCAR-4 ovarian = test system: OVCAR-4 ovarian
OVCAR-5 ovarian = test system: OVCAR-5 ovarian
PC-3 prostate = test system: PC-3 prostate
RPMI-8226 leukemia = test system: RPMI-8226 leukemia
RXF 393 renal = test system: RXF 393 renal
SF-268 CNS = test system: SF-268 CNS
SF-295 CNS = test system: SF-295 CNS
SF-539 CNS = test system: SF-539 CNS
SK-MEL-2 melanoma = test system: SK-MEL-2 melanoma
SK-MEL-28 melanoma = test system: SK-MEL-28 melanoma
SK-MEL-5 melanoma = test system: SK-MEL-5 melanoma
SK-OV-3 ovarian = test system: SK-OV-3 ovarian
SNB-19 CNS = test system: SNB-19 CNS
SNB-75 CNS = test system: SNB-75 CNS
SR leukemia = test system: SR leukemia
SW-620 colon = test system: SW-620 colon
TK-10 renal = test system: TK-10 renal
U251 CNS = test system: U251 CNS
UACC-257 melanoma = test system: UACC-257 melanoma
UACC-62 melanoma = test system: UACC-62 melanoma
UO-31 renal = test system: UO-31 renal

Q: For Cc1ccc2ccc3ccc(C)nc3c2n1.Cc1ccc2ccc3ccc(C)nc3c2n1.Oc1c(Cl)cc(Cl)c2ccc(CN3CCCCC3)nc12.[Ru], which GI50 (786-0 renal) is on record?
A: Its GI50 is 542 nM.

Q: And the TGI (786-0 renal)?
A: The TGI was 1780 nM.

Q: And the GI50 (A498 renal)?
A: The GI50 was 1760 nM.

Q: What about the TGI (A498 renal) of the same compound?
A: The TGI was 4020 nM.

Q: And the GI50 (A549 NSCLC)?
A: Its GI50 is 326 nM.

Q: What about the TGI (A549 NSCLC) of the same compound?
A: Its TGI is 1280 nM.

Q: And the GI50 (ACHN renal)?
A: Its GI50 is 1650 nM.

Q: And the TGI (ACHN renal)?
A: The TGI was 3230 nM.

Q: And the GI50 (BT-549 breast)?
A: Its GI50 is 337 nM.

Q: What about the TGI (BT-549 breast) of the same compound?
A: The TGI was 931 nM.

Q: And the GI50 (CAKI-1 renal)?
A: The GI50 was 1430 nM.

Q: What about the TGI (CAKI-1 renal) of the same compound?
A: The TGI was 2830 nM.

Q: And the GI50 (CCRF-CEM leukemia)?
A: Its GI50 is 423 nM.

Q: And the TGI (CCRF-CEM leukemia)?
A: Its TGI is 2200 nM.

Q: What about the GI50 (COLO 205 colon) of the same compound?
A: Its GI50 is 195 nM.

Q: And the TGI (COLO 205 colon)?
A: Its TGI is 429 nM.

Q: And the GI50 (DU-145 prostate)?
A: The GI50 was 494 nM.

Q: And the TGI (DU-145 prostate)?
A: Its TGI is 4910 nM.

Q: And the GI50 (EKVX NSCLC)?
A: Its GI50 is 363 nM.

Q: What about the TGI (EKVX NSCLC) of the same compound?
A: The TGI was 2210 nM.

Q: What about the GI50 (HCC-2998 colon) of the same compound?
A: Its GI50 is 414 nM.

Q: What about the TGI (HCC-2998 colon) of the same compound?
A: The TGI was 1580 nM.

Q: And the GI50 (HCT-116 colon)?
A: Its GI50 is 247 nM.

Q: What about the TGI (HCT-116 colon) of the same compound?
A: The TGI was 1230 nM.

Q: And the GI50 (HCT-15 colon)?
A: Its GI50 is 1280 nM.

Q: What about the TGI (HCT-15 colon) of the same compound?
A: Its TGI is 2770 nM.

Q: What about the GI50 (HOP-62 NSCLC) of the same compound?
A: The GI50 was 409 nM.

Q: What about the TGI (HOP-62 NSCLC) of the same compound?
A: The TGI was 1410 nM.

Q: And the GI50 (HOP-92 NSCLC)?
A: Its GI50 is 109 nM.

Q: What about the TGI (HOP-92 NSCLC) of the same compound?
A: Its TGI is 835 nM.

Q: What about the GI50 (HS 578T breast) of the same compound?
A: Its GI50 is 354 nM.

Q: What about the TGI (HS 578T breast) of the same compound?
A: The TGI was 2320 nM.

Q: What about the GI50 (K-562 leukemia) of the same compound?
A: The GI50 was 253 nM.

Q: And the TGI (K-562 leukemia)?
A: The TGI was 1890 nM.

Q: What about the GI50 (KM12 colon) of the same compound?
A: Its GI50 is 411 nM.

Q: What about the TGI (KM12 colon) of the same compound?
A: The TGI was 1520 nM.

Q: And the GI50 (LOX IMVI melanoma)?
A: Its GI50 is 341 nM.

Q: What about the TGI (LOX IMVI melanoma) of the same compound?
A: The TGI was 1230 nM.

Q: And the GI50 (M14 melanoma)?
A: Its GI50 is 383 nM.

Q: And the TGI (M14 melanoma)?
A: Its TGI is 1440 nM.

Q: What about the GI50 (MALME-3M melanoma) of the same compound?
A: The GI50 was 248 nM.

Q: What about the TGI (MALME-3M melanoma) of the same compound?
A: The TGI was 666 nM.

Q: What about the GI50 (MDA-MB-231 breast) of the same compound?
A: The GI50 was 295 nM.

Q: And the TGI (MDA-MB-231 breast)?
A: Its TGI is 909 nM.

Q: What about the GI50 (MDA-MB-435) of the same compound?
A: Its GI50 is 333 nM.

Q: And the TGI (MDA-MB-435)?
A: Its TGI is 1230 nM.

Q: What about the GI50 (MOLT-4 leukemia) of the same compound?
A: Its GI50 is 461 nM.

Q: And the TGI (MOLT-4 leukemia)?
A: Its TGI is 2220 nM.

Q: And the GI50 (NCI-H23 lung)?
A: The GI50 was 300 nM.

Q: And the TGI (NCI-H23 lung)?
A: The TGI was 1130 nM.

Q: What about the GI50 (NCI-H522 lung) of the same compound?
A: Its GI50 is 363 nM.

Q: What about the TGI (NCI-H522 lung) of the same compound?
A: Its TGI is 2130 nM.

Q: What about the GI50 (NCI/ADR-RES ovarian) of the same compound?
A: The GI50 was 2700 nM.

Q: And the TGI (NCI/ADR-RES ovarian)?
A: The TGI was 7990 nM.

Q: And the GI50 (OVCAR-3 ovarian)?
A: Its GI50 is 387 nM.

Q: And the TGI (OVCAR-3 ovarian)?
A: Its TGI is 1380 nM.

Q: And the GI50 (OVCAR-4 ovarian)?
A: The GI50 was 362 nM.

Q: What about the TGI (OVCAR-4 ovarian) of the same compound?
A: The TGI was 1840 nM.

Q: What about the GI50 (OVCAR-5 ovarian) of the same compound?
A: The GI50 was 599 nM.

Q: And the TGI (OVCAR-5 ovarian)?
A: The TGI was 3010 nM.

Q: What about the GI50 (PC-3 prostate) of the same compound?
A: Its GI50 is 303 nM.

Q: What about the TGI (PC-3 prostate) of the same compound?
A: The TGI was 1500 nM.

Q: And the GI50 (RPMI-8226 leukemia)?
A: Its GI50 is 223 nM.

Q: What about the TGI (RPMI-8226 leukemia) of the same compound?
A: The TGI was 876 nM.

Q: What about the GI50 (RXF 393 renal) of the same compound?
A: Its GI50 is 714 nM.

Q: What about the TGI (RXF 393 renal) of the same compound?
A: The TGI was 1990 nM.

Q: What about the GI50 (SF-268 CNS) of the same compound?
A: The GI50 was 447 nM.

Q: And the TGI (SF-268 CNS)?
A: The TGI was 2210 nM.

Q: And the GI50 (SF-295 CNS)?
A: The GI50 was 286 nM.

Q: What about the TGI (SF-295 CNS) of the same compound?
A: Its TGI is 1160 nM.

Q: And the GI50 (SF-539 CNS)?
A: The GI50 was 366 nM.

Q: And the TGI (SF-539 CNS)?
A: The TGI was 1290 nM.

Q: What about the GI50 (SK-MEL-2 melanoma) of the same compound?
A: The GI50 was 613 nM.

Q: And the TGI (SK-MEL-2 melanoma)?
A: Its TGI is 1840 nM.

Q: What about the GI50 (SK-MEL-28 melanoma) of the same compound?
A: The GI50 was 513 nM.

Q: And the TGI (SK-MEL-28 melanoma)?
A: The TGI was 1780 nM.

Q: What about the GI50 (SK-MEL-5 melanoma) of the same compound?
A: The GI50 was 675 nM.

Q: What about the TGI (SK-MEL-5 melanoma) of the same compound?
A: The TGI was 1860 nM.

Q: What about the GI50 (SK-OV-3 ovarian) of the same compound?
A: The GI50 was 293 nM.

Q: What about the TGI (SK-OV-3 ovarian) of the same compound?
A: The TGI was 1070 nM.

Q: What about the GI50 (SNB-19 CNS) of the same compound?
A: The GI50 was 331 nM.

Q: What about the TGI (SNB-19 CNS) of the same compound?
A: The TGI was 1280 nM.

Q: What about the GI50 (SNB-75 CNS) of the same compound?
A: The GI50 was 243 nM.

Q: What about the TGI (SNB-75 CNS) of the same compound?
A: The TGI was 1120 nM.

Q: What about the GI50 (SR leukemia) of the same compound?
A: The GI50 was 345 nM.

Q: And the TGI (SR leukemia)?
A: The TGI was 1750 nM.

Q: What about the GI50 (SW-620 colon) of the same compound?
A: The GI50 was 381 nM.

Q: And the TGI (SW-620 colon)?
A: Its TGI is 1610 nM.

Q: What about the GI50 (TK-10 renal) of the same compound?
A: Its GI50 is 734 nM.

Q: And the TGI (TK-10 renal)?
A: Its TGI is 2070 nM.

Q: What about the GI50 (U251 CNS) of the same compound?
A: The GI50 was 218 nM.

Q: And the TGI (U251 CNS)?
A: Its TGI is 1160 nM.

Q: What about the GI50 (UACC-257 melanoma) of the same compound?
A: Its GI50 is 350 nM.

Q: And the TGI (UACC-257 melanoma)?
A: The TGI was 1230 nM.

Q: And the GI50 (UACC-62 melanoma)?
A: Its GI50 is 445 nM.

Q: And the TGI (UACC-62 melanoma)?
A: The TGI was 1670 nM.

Q: And the GI50 (UO-31 renal)?
A: The GI50 was 1720 nM.

Q: And the TGI (UO-31 renal)?
A: The TGI was 3880 nM.
